Patent US9199918B2, “Small molecule inhibitors of AGBL2” (Georgetown University, priority 2011, dated 2015)

Tests used:
AGBL2 [1] = biological target: T1, AGBL2 (Homo sapiens, UniProt Q5U5Z8); test: Enzyme inhibition kinetic assay (fluorometric, release of tyrosine from hydroxycoumarin-conjugated tubulin CTT substrate); format: biochemical; conditions: 1 nM recombinant AGBL2; substrate 1 μM; 25° C., pH 7.5; apparent Ki fitted to Morrison equation for tight-binding inhibitors
T1 construct: His (N); made in house; protein recovered from inclusion bodies
T1 sequence (Q5U5Z8 1-902): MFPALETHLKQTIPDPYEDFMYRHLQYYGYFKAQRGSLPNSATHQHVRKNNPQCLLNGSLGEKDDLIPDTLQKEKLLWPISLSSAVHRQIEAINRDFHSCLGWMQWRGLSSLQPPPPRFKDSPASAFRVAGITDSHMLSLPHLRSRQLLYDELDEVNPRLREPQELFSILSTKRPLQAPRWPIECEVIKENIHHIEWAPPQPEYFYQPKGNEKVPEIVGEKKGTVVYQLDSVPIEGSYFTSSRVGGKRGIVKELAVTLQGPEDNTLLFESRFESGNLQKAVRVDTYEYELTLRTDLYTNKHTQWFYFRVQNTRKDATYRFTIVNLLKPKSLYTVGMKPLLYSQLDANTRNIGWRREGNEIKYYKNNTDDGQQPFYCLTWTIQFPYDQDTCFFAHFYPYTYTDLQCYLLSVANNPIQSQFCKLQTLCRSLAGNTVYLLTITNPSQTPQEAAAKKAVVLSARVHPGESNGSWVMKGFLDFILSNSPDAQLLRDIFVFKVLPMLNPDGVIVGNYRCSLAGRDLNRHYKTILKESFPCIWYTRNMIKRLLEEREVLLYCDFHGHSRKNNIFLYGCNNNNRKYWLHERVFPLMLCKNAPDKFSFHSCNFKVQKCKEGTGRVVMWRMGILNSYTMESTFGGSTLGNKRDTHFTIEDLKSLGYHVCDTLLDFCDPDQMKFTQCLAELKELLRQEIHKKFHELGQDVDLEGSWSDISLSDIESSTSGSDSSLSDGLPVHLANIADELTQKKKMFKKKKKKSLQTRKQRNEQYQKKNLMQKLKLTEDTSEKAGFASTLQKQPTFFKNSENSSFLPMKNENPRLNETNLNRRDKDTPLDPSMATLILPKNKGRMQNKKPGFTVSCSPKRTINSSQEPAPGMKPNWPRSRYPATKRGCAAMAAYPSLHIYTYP
From the text: Fluorescence Resonance Energy Transfer (FRET) principle can be applied to generate real-time enzymatic activity data. The tyrosinated C-terminal tail of tubulin has a tyrosine at the C-terminal. Tyrosines absorb at 270 nm and emit in the 280 to 350 nm range with a λMax=303 nm. Adding a hydroxycoumarin that absorbs in the range of 300 to 350 nm to the N-terminal of the CTT of tubulin (see FIG. 5) allows the quenching of the tyrosine emission that can be monitored at 303 nm. Emissions at 303 nm can be detected after the cleavage of the tyrosine residue since the latter will follow a Brownian motion and become physical situated far from the quencher (Hydroxycoumarin). Assays can be performed at 25° C. in 10 mM CaCl2, 0.2 M NaCl, and 0.05% Brij-35 in 50 mM HEPES, pH 7.5, over a substrate concentration range of […] and an enzyme concentration range of 0.1-50 nM. An exemplary assay was performed by incubating 186 μL of buffer solution, 4 μL of substrate solution, and then adding 10 μL of AGBL2 solution. The mixture was then incubated for 15 to 120 minutes at 25° C.
Kinetic assays of the inhibition of AGBL2 were carried out using the substrate described in Example 4 to measure inhibition constants. Enzymatic assays were performed at 25° C. in 50 mM HEPES buffer at pH 7.5 in the presence of 10 mM CaCl2, 0.2 M NaCl, and 0.01% or 0.05% Brij-35 with substrate concentrations of 1 μM. The release of tyrosine was monitored by measuring fluorescence (excitation and emission wavelengths of 270 nm and 303 nm, respectively). The compounds tested as inhibitors included compound Sd-1, compound Sd-2, compound Sd-3, and compound Sd-4. All stock solutions of inhibitors were in methanol. For inhibition assays, 10 μL of inhibitor stock solution, 176 μL of assay buffer, and 10 μL of enzyme stock solution were mixed and incubated for 30 to 60 minutes prior to initiation of the assay, which was accomplished by adding and mixing 4 μL of substrate stock solution. Enzyme concentrations ranged from 0.2 to 7 nM during the assay. Apparent inhibition constant (Ki^app) values were calculated by fitting the kinetics data to the Morrison equation for tight-binding inhibitors, where vi and vo are the initial rates with and without inhibitor, respectively, and [E]o and [I]o are the initial (total) enzyme and inhibitor concentrations, respectively. The Ki values of the four tested compounds and of recombinant RARRES1, all including 1 nM of recombinant AGBL2) are shown in Table 1.

AGBL2 [2] = biological target: T1, AGBL2; test: High throughput enzyme kinetic (FRET) assay, saturation curves in the presence of inhibitor; format: biochemical; conditions: AGBL2 1 nM; Sd-4 at 1 nM, 5 nM and 10 nM; substrate 0 to 3 μM
From the text: Fluorescence Resonance Energy Transfer (FRET) principle can be applied to generate real-time enzymatic activity data. The tyrosinated C-terminal tail of tubulin has a tyrosine at the C-terminal. Tyrosines absorb at 270 nm and emit in the 280 to 350 nm range with a λMax=303 nm. Adding a hydroxycoumarin that absorbs in the range of 300 to 350 nm to the N-terminal of the CTT of tubulin (see FIG. 5) allows the quenching of the tyrosine emission that can be monitored at 303 nm. Emissions at 303 nm can be detected after the cleavage of the tyrosine residue since the latter will follow a Brownian motion and become physical situated far from the quencher (Hydroxycoumarin). […]
The reaction rate can be analyzed using different substrate concentrations and the saturation curve can be drawn. The maximum reaction rate (Vmax) and the substrate concentration at half the Vmax referred to as the Michaelis-Menten constant (KM) can be determined from the saturation curve. Inhibitors can also be analyzed and a saturation curve in the presence of inhibitor can be drawn. The reaction rate was analyzed using substrate concentrations over a range of 0 to 3 μM. […] The dissociation constant of the inhibitor (Ki) can be calculated using the following equation: Ki=[Inhibitor]/((KM,obs/KM)−1.0).

A Ki (AGBL2 [1]) of 428 nM was found for `CC(C)c1ccc(Sc2ccc(F)cc2CC(=O)O)cc1` [Sd-3] in this work.

A Ki (AGBL2 [1]) of 173 nM was found for `Cc1cc(F)cnc1CC(=O)O` [Sd-1] in this work.

A Ki (AGBL2 [1]) of 87 nM was found for `Cc1cc(C(F)(F)F)cnc1CC(=O)O` [Sd-2] in this work.

For `O=C(O)Cc1cccc(C(=O)Nc2ccc3c(c2)OCO3)c1` [Sd-4], the Ki (AGBL2 [1]) was 4.89 nM and the “inhibition of AGBL2 activity at varying substrate concentrations (FIG. 6)” value (AGBL2 [2]) was “inhibition of AGBL2 activity”.

B1: RARRES1: recombinant N-His RARRES1 protein (MW ~31 kDa) obtained from inclusion bodies (protein, UniProt P49788 1-294, looked up)
Retinoic acid receptor …: MQPRRQRLPAPWSGPRGPRPTAPLLALLLLLAPVAAPAGSGDPDDPGQPQDAGVPRRLLQQAARAALHFFNFRSGSPSALRVLAEVQEGRAWINPKEGCKVHVVFSTERYNPESLLQEGEGRLGKCSARVFFKNQKPRPTINVTCTRLIEKKKRQQEDYLLYKQMKQLKNPLEIVSIPDNHGHIDPSLRLIWDLAFLGSSYVMWEMTTQVSHYYLAQLTSVRQWKTNDDTIDFDYTVLLHELSTQEIIPCRIHLVWYPGKPLKVKYHCQELQTPEEASGTEEGSAVVPTELSNF
modifications: N-terminal His tag
notes: recombinant N-His RARRES1 protein (MW ~31 kDa) obtained from inclusion bodies
A Ki (AGBL2 [1]) of 27 nM was found for B1 in this work.
